Measured values from patent US8710089B2, “Triazole derivatives as ghrelin analogue ligands of growth hormone secretagogue receptors” (Zentaris GmbH, priority 2005, dated 2014).
pIC50: −log10 of the molar value. “And” between values parts separate entries of the source, which are not always exact repeats. Equal values may be shown once. Non-standard residues stand in square brackets, D forms with d. Residues, ends and D or L forms follow the SMILES beside them. dTrp(2-Me) = Cc1[nH]c2ccccc2c1C[C@@H](N)C(=O)O

Key:
human GHS-R 1a = molecular target: T1, human GHS-R 1a (Homo sapiens, UniProt Q92847); assay: GHS-R 1a receptor-ligand binding assay (membrane preparations from transfected LLC PK-1 cells); conditions: displacement of 125I-His9-ghrelin (60 pM); membranes of LLC PK-1 cells transfected with human GHS-R 1a; mean of at least two independent experiments in triplicates
T1 construct: expressed in transfected cells; host or cells: LLC PK-1 porcine renal epithelial cells (ECACC No. 86121112), isolated plasma membranes
T1 sequence (Q92847 whole entry): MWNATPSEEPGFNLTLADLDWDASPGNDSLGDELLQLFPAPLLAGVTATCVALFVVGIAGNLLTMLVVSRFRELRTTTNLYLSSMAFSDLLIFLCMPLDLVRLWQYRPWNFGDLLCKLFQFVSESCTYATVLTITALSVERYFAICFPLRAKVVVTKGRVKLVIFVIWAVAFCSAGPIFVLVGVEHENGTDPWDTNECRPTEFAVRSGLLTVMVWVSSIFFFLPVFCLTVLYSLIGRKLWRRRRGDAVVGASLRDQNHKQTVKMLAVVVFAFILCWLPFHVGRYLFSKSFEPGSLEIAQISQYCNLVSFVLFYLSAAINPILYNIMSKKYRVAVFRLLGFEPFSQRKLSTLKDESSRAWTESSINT
Method in brief: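 Membranes from LLC PK-1 cells expressing human GHS-R 1a incubated 60 min at 25 °C in 50 mM Tris pH 7.3, 5 mM MgCl2, 2.5 mM EDTA, bacitracin with 60 pM 125I-ghrelin and competitor; nonspecific binding with 10^-6 M ghrelin; filtration read-out.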

[1] = system: young-adult male Sprague-Dawley rats; assay: Feeding behavior (food intake) of young-adult male rats; type: in vivo, rat (Sprague-Dawley)
Description: V) Assaying the Feeding Behavior (Food Intake) of Young-Adult Male Rats
The impact of compounds of the invention being GHS receptor analogue ligands on the feeding behaviour, i.e. food intake, of young-adult male rats was assayed.
In principle, assaying the feeding behavior (food intake) of young-adult male rats was performed according to Torsello et al. (Eur. J. Pharmacol. 1998, 360: 123-129).
For the assay, young-adult male Sprague-Dawley rats (Charles River, Calco, Italy), weighing 200-250 g, were used.
Rats had 1 week of acclimation in individual home cages, and animal room conditions (22±2° C., 65% humidity, artificial light from 08.00 to 20.00 h). The following week, they were daily trained to mimic the experimental procedure. Rats maintained free access to dry pellets and tap water throughout the whole experimental period. At the end of training, rats were administered (around 10.00-11.00 a.m.) subcutaneously with the compounds to be tested (160 μg/kg body weight) and/or hexarelin (80 μg/kg body weight) and/or solvent [DMSO (0.4% of total volume), distilled water (4% of total volume), brought to the final volume with physiological saline].
Hexarelin was used to study the effects of the compounds to be tested on stimulated feeding behavior. Immediately after the injections, the animals were returned to their home cages, which contained a known amount of standard rat chow and ad libitum water. Every hour for the following 6 hours, the remaining food was carefully collected and weighed to the nearest 0.1 g. Food intake was normalized for the body weight of the rats and expressed as grams of food eaten per 100 g body weight of rats.
In the following table 4 results obtained for selected compounds of the invention are presented.

[2] = system: GH concentration in the plasma of male rat pups; assay: In vivo GH concentration in the plasma of male rat pups; design: species or system rat (Sprague-Dawley); conditions: rat pup plasma
Description: IV) Assaying In Vivo GH Concentration in the Plasma of Male Rat Pups
GH plasma concentrations of male rat pubs were assayed to characterize the modulation effect (antagonistic or agonistic) of the compounds of the invention being GHS receptor analogue ligands.
In principle, assaying in vivo GH concentration in rat plasma was performed according to Torsello et al. (Eur. J. Pharmacol. 1998, 360: 123-129).
Male Sprague-Dawley rat pups (Charles River, Calco, Italy) were separated on postnatal day seven from their mothers and randomly redistributed to the dams, so that each one nurtured ten to twelve pups. On postnatal day ten, the pups were again separated from their mothers.
The compounds to be tested were dissolved in solvent [DMSO (0.4% of total volume), distilled water (4% of total volume), brought to the final volume with physiological saline].
One hour after separation from their mothers, the pups were given isovolumetric amounts of the compounds to be tested (160 μg/kg body weight s.c.) at time −10 min and then administered with hexarelin (80 μg/kg body weight s.c.) or solvent at time 0 min before being killed 15 min later by decapitation. Trunk blood was collected, immediately centrifuged and plasma samples were stored at −20° C. until assayed for the determination of GH concentrations.
Plasma GH concentrations were measured using a rat growth hormone enzyme immunoassay kit (SPIbio, France, cat. no. 589601) according to the manufacturer's instructions. Values are expressed in terms of NIDDK rat-GH-RP2 standard (potency 2 IU/mg) as ng/mL of plasma
The limit of detection calculated as the concentration producing 15% displacement of initial tracer was 0.5 ng/ml; intra-assay and inter-assay coefficient of variation are 4% (n=24) and 14% (n=9).
In the following table 3 results obtained for selected compounds of the invention are presented.

[3] = compound 160 μg/kg s.c. + hexarelin 80 μg/kg s.c.
[4] = compound alone, 160 μg/kg body weight s.c.
[5] = compound 160 μg/kg s.c. at -10 min + hexarelin 80 μg/kg s.c. at 0 min, killed 15 min later
[6] = compound alone 160 μg/kg body weight s.c. at -10 min, solvent at 0 min, killed 15 min later

pIC50 (human GHS-R 1a) | SMILES | Cumulative food intake (after 2 hours) [1, 3] | Cumulative food intake (after 6 hours) [1, 3] | Cumulative food intake (after 2 hours) [1, 4] | Cumulative food intake (after 6 hours) [1, 4] | GH concentration [2, 5] | GH concentration [2, 6] | GH concentration ([2]; hexarelin alone 80 μg/kg body weight s.c.)
7.74 | COc1ccc(Cn2c(CCc3c[nH]c4ccccc34)nnc2[C@@H](Cc2c[nH]c3ccccc23)NC(=O)C2CNCCN2)cc1 (stereo partly drawn) [compound 81] | 0.024 ± 0.0101 g food/100 g body weight | 0.116 ± 0.077 g food/100 g body weight | 0.017 ± 0.004 g food/100 g body weight | 0.03 ± 0 g food/100 g body weight | 216.575 ± 19.734 ng/mL | 18.634 ± 2.933 ng/mL | –
7.57 | COc1ccc(Cn2c(CCc3ccccc3)nnc2[C@@H](Cc2c[nH]c3ccccc23)NC(=O)[C@H]2CCCN2)cc1 [compound 47, (R)—N—((R)-1-(4-(4-methoxybenzyl)-5-phenethyl-4H-1,2,4-triazol-3-yl)-2-(1H-indol-3-yl)ethyl)pyrrolidine-2-carboxamide] | 0.35 ± 0.201 g food/100 g body weight | 0.47 ± 0.1943 g food/100 g body weight | 0.006 ± 0.002 g food/100 g body weight | 0.02 ± 0 g food/100 g body weight | 160.857 ± 13.52 ng/mL | 5.658 ± 1.192 ng/mL | –
7.55 | COc1ccc(Cn2c(CCc3c[nH]c4ccccc34)nnc2[C@@H](Cc2c[nH]c3ccccc23)NC(=O)[C@H]2CCCN2)cc1 [compound 90, (R)—N—((R)-1-(5-(2-(1H-indol-3-yl)ethyl)-4-(4-methoxybenzyl)-4H-1,2,4-triazol-3-yl)-2-(1H-indol-3-yl)ethyl)pyrrolidine-2-carboxamide] | 0.054 ± 0.041 g food/100 g body weight | 0.069 ± 0.041 g food/100 g body weight | 0.014 ± 0.001 g food/100 g body weight | 0.035 ± 0.003 g food/100 g body weight | 218.844 ± 19.723 ng/mL | 16.857 ± 2.152 ng/mL | –
– | COc1ccc(Cn2c(CCc3ccccc3)nnc2[C@@H](Cc2c[nH]c3ccccc23)NC(=O)[C@@H]2CCCCN2)cc1 [compound 48, (S)—N—((R)-1-(4-(4-methoxybenzyl)-5-phenethyl-4H-1,2,4-triazol-3-yl)-2-(1H-indol-3-yl)ethyl)piperidine-2-carboxamide] | – | – | – | – | 145.946 ± 12.159 ng/mL | 6.096 ± 2.091 ng/mL | –
8.22 | COc1ccc(Cn2c(CCc3c[nH]c4ccccc34)nnc2[C@@H](Cc2c[nH]c3ccccc23)NC(=O)C(C)(C)N)cc1 [compound 12, (R)—N-(1-(5-(2-(1H-indol-3-yl)ethyl)-4-(4-methoxybenzyl)-4H-1,2,4-triazol-3-yl)-2-(1H-indol-3-yl)ethyl)-2-amino-2-methylpropanamide] | 0.13 ± 0.07 g food/100 g body weight | 0.48 ± 0.22 g food/100 g body weight | 0.034 ± 0.011 g food/100 g body weight | 0.06 ± 0.019 g food/100 g body weight | 200.0 ± 19.7 ng/mL | 4.0 ± 0.12 ng/mL | –
– | CC(C)(N)C(=O)N[C@H](Cc1c[nH]c2ccccc12)c1nnc(Cc2ccccc2)n1Cc1ccccn1 [compound 39, (R)—N-(1-(5-benzyl-4-(pyridin-2-ylmethyl)-4H-1,2,4-triazol-3-yl)-2-(1H-indol-3-yl)ethyl)-2-amino-2-methylpropanamide] | – | – | – | – | 82.481 ± 11.530 ng/mL and 82.481 ± 11.53 ng/mL | 5.509 ± 1.950 ng/mL and 5.509 ± 1.95 ng/mL | –
9.30 | COc1ccc(Cn2c(CCc3c[nH]c4ccccc34)nnc2[C@@H](Cc2c[nH]c3ccccc23)NC(=O)C2CCNCC2)c(OC)c1 [compound 31, (R)—N-(1-(5-(2-(1H-indol-3-yl)ethyl)-4-(2,4-dimethoxybenzyl)-4H-1,2,4-triazol-3-yl)-2-(1H-indol-3-yl)ethyl)piperidine-4-carboxamide] | – | – | – | – | 103.528 ± 14.094 ng/mL | 119.937 ± 33.054 ng/mL | –
– | COc1ccc(Cn2c(CCc3ccccc3)nnc2[C@@H](Cc2c[nH]c3ccccc23)NC(=O)CN)cc1 [compound 50, (R)—N-(1-(4-(4-methoxybenzyl)-5-phenethyl-4H-1,2,4-triazol-3-yl)-2-(1H-indol-3-yl)ethyl)-2-aminoacetamide] | 0.003 ± 0.002 g food/100 g body weight | 0.017 ± 0.001 g food/100 g body weight | 0.012 ± 0.008 g food/100 g body weight | 0.039 ± 0.011 g food/100 g body weight | 164.459 ± 4.443 ng/mL | 9.852 ± 1.040 ng/mL | –
– | COc1ccc(Cn2c(CCc3c[nH]c4ccccc34)nnc2[C@H](N)Cc2c[nH]c3ccccc23)c(OC)c1 [compound 74, (R)-1-(5-(2-(1H-indol-3-yl)ethyl)-4-(2,4-dimethoxybenzyl)-4H-1,2,4-triazol-3-yl)-2-(1H-indol-3-yl)ethanamine] | – | – | – | – | 194.564 ± 7.658 ng/mL | 10.571 ± 0.791 ng/mL | –
7.49 | COc1ccc(Cn2c(CCc3c[nH]c4ccccc34)nnc2[C@@H](Cc2c[nH]c3ccccc23)NC(=O)C2CNCCN2)c(OC)c1 (mixture of isomers) [compound 72] | 0.634 ± 0.33 g food/100 g body weight | 0.746 ± 0.31 g food/100 g body weight | 0.008 ± 0.003 g food/100 g body weight | 0.011 ± 0 g food/100 g body weight | – | – | –
– | Cc1[nH]c2ccccc2c1C[C@@H](NC(=O)[C@@H](N)Cc1cnc[nH]1)C(=O)N[C@@H](C)C(=O)N[C@@H](Cc1c[nH]c2ccccc12)C(=O)N[C@H](Cc1ccccc1)C(=O)N[C@@H](CCCCN)C(N)=O [hexarelin, Hexarelin, reference compound] (H-H[dTrp(2-Me)]AW[dF]K-NH2) | – | – | – | – | – | – | 170.101 ± 13.226 ng/mL and 253.820 ± 12.268 ng/mL and 162.839 ± 21.095 ng/mL

SMILES | pIC50 (human GHS-R 1a) | Cumulative food intake (after 2 hours) [1, 3] | Cumulative food intake (after 6 hours) [1, 3] | Cumulative food intake (after 2 hours) [1, 4] | Cumulative food intake (after 6 hours) [1, 4] | GH concentration [2, 5] | GH concentration [2, 6] | GH concentration ([2]; hexarelin alone 80 μg/kg body weight s.c.)
CC(C)(N)C(=O)N[C@H](Cc1c[nH]c2ccccc12)c1nnc(CCCc2c[nH]c3ccccc23)n1CCc1c[nH]c2ccccc12 [compound 24, (R)—N-(1-(4-(2-(1H-indol-3-yl)ethyl)-5-(3-(1H-indol-3-yl)propyl)-4H-1,2,4-triazol-3-yl)-2-(1H-indol-3-yl)ethyl)-2-amino-2-methylpropanamide] | 7.54 | 0.586 ± 0.252 g food/100 g body weight | 0.912 ± 0.359 g food/100 g body weight | 0.008 ± 0.008 g food/100 g body weight | 0.215 ± 0.200 g food/100 g body weight | – | – | –
